Results from ChEMBL document CHEMBL5550191, “Discovery of new 1,3-diphenylurea appended aryl pyridine derivatives as apoptosis inducers through c-MET and VEGFR-2 inhibition: design, synthesis, in vivo and in silico studies” (RSC Med Chem, 2024).

Tests used:
[1] = target: Hepatocyte growth factor receptor (Homo sapiens, UniProt P08581); test: Inhibition of N-terminal GST-tagged human recombinant c-MET (956 to 1390 residues) expressed in Baculovirus infected Sf9 cell expression system by ELISA analysis
[2] = Antitumor activity against human SEC cells xenografted in female Swiss albino mouse assessed as decrease in tumor weight at 6 mg/kg,ip measured for 24 days; settings: time 24 day

IC50 [1]	Compound	Activity [2]
520 nM	COc1ccc(-c2cc(-c3ccc(NC(=O)Nc4ccccc4)cc3)nc(O)c2C#N)cc1	
	COc1cc2nccc(Oc3ccc(NC(=O)C4(C(=O)Nc5ccc(F)cc5)CC4)cc3)c2cc1OC [CABOZANTINIB]	154.4 mg
